Measurements taken from US20240254119A1 (THIRD HARMONIC BIO, INC., priority 2022, published 2024).

Key:
Kinetic solubility assay = type: physicochemical; settings: kinetic solubility, 50 mM PB (pH 7.4), shaken 24 hours at RT
Description: 10 μL of 10 mM in DMSO of test article and control compounds was added into lower chambers of whatman miniuniprep vials, respectively. 490 μL of 50 mM PB (pH 7.4) was then added into lower chambers of the whatman miniuniprep vials, respectively. […] Miniuniprep vials were shaken for 24 hours at RT at the speed of 800 rpm, centrifuged 20 minutes (eg. 4000 rpm) and the filtrates were analyzed by UPLC-UV/HPLC-UV system to calculate the concentration with standard curve.
Filter Membrane: Miniuniprep (PTFE Filter Media with Polypropylene Housing) Cat. No. UN203NPUORG, GE Halthcare Whatman.

wtKIT = biological target: T1, wtKIT (Homo sapiens, UniProt P10721); experiment: HTRF biochemical assay, wtKIT (phosphorylation of a peptide substrate); settings: Table 4
T1 construct: 1888289AM in the reaction mixtures
Outline: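 wtKIT (5.0 nM) phosphorylating 1 µM FAM-labelled peptide with 400 µM ATP and 10 mM MnCl2 in 100 mM HEPES pH 7.5, 1% DMSO, 3 h at 25 °C. EDTA quench; phosphopeptide detected with anti-phosphotyrosine antibody by HTRF. Enzyme titrated for 10-20% substrate conversion.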

T1 sequence (P10721 26-976): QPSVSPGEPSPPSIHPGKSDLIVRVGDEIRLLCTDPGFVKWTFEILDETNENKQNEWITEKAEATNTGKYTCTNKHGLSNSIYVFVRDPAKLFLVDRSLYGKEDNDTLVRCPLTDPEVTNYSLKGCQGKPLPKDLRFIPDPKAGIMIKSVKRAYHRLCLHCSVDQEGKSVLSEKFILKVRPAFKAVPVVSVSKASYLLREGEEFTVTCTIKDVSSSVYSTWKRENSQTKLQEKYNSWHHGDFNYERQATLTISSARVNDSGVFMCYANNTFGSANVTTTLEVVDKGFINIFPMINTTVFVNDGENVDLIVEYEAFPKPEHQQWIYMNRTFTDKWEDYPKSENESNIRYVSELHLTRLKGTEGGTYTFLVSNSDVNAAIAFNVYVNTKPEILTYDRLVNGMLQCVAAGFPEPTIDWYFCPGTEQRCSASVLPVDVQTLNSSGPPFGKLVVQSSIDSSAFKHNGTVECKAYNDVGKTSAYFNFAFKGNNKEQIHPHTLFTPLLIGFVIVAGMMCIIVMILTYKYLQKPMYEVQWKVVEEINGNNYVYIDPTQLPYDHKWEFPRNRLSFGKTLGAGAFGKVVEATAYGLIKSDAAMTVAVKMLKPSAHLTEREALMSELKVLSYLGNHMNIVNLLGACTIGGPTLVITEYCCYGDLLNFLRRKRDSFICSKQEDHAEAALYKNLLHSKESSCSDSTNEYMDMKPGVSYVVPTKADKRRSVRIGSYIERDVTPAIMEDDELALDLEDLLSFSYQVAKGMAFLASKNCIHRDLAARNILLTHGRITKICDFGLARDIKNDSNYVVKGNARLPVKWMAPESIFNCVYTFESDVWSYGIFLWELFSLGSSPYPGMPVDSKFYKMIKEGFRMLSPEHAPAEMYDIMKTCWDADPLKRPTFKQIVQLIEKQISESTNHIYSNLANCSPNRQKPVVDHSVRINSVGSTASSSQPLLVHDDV

Row | SMILES | IC50 (wtKIT) | Solubility (μM) (Kinetic solubility assay)
1 | Cc1ccc(-c2noc(C3CC3F)n2)cc1NC(=O)c1cnc2cc(CNC(=O)C3CCCO3)ccn12 (mixture of isomers) [I-33] | – | *** (a solubility greater than 2 μM and less than or equal to 10 μM)
2 | Cc1ccc(-c2noc(CC(O)C(F)F)n2)cc1NC(=O)c1cnc2cc(OC(F)(F)F)ccn12 (single isomer, unassigned) [I-13] | – | **** (a solubility less than or equal to 2 μM)
3 | COc1ccn2c(C(=O)Nc3cccc(-c4noc(CC5CC5(F)F)n4)c3F)cnc2c1 (single isomer, unassigned) [I-54] | – | **** (a solubility less than or equal to 2 μM)
4 | O=C(Nc1cc(-c2noc(CC(O)C(F)F)n2)ccc1Cl)c1cnc2ccccn12 (single isomer, unassigned) [I-61] | – | **** (a solubility less than or equal to 2 μM)
5 | O=C(Nc1cc(-c2noc(CC(O)C(F)F)n2)ccc1Cl)c1cnc2ccccn12 (single isomer, unassigned) [I-62] | – | **** (a solubility less than or equal to 2 μM)
6 | COc1ccc2ncc(C(=O)Nc3cc(-c4noc(CC(O)C(F)F)n4)ccc3C)n2c1 (single isomer, unassigned) [I-65] | – | **** (a solubility less than or equal to 2 μM)
7 | COc1ccc2ncc(C(=O)Nc3cc(-c4noc(CC(O)C(F)F)n4)ccc3C)n2c1 (single isomer, unassigned) [I-66] | – | **** (a solubility less than or equal to 2 μM)
8 | Cc1ccc(-c2noc(CC(O)C(F)(F)F)n2)cc1NC(=O)c1cnc2ccccn12 (single isomer, unassigned) [I-67] | – | **** (a solubility less than or equal to 2 μM)
9 | Cc1ccc(-c2noc(CC(O)C(F)(F)F)n2)cc1NC(=O)c1cnc2ccccn12 (single isomer, unassigned) [I-68] | – | **** (a solubility less than or equal to 2 μM)
10 | Cc1ccc(-c2noc(CC(O)C(F)F)n2)cc1NC(=O)c1cnc2cc(C(F)F)ccn12 (single isomer, unassigned) [I-70] | – | **** (a solubility less than or equal to 2 μM)
11 | Cc1ccc(-c2ncon2)cc1NC(=O)c1cnc2cc(N3CCOCC3)ccn12 [Compound I-717] | ≤ 50 nM | –
12 | COCc1ccn2c(C(=O)Nc3cc(-c4noc(-c5cccnc5)n4)ccc3C)cnc2c1 [Compound I-732] | 50 to 500 nM | –
13 | CCc1nc(-c2ccc(C)c(NC(=O)c3cnc4cc(F)ccn34)c2)no1 [Compound I-739] | ≤ 50 nM | –
14 | COc1ccn2c(C(=O)Nc3cc(-c4noc(-c5cccnc5)n4)ccc3C)cnc2c1 [Compound I-745] | ≤ 50 nM | –
15 | Cc1noc(-c2ccc3ncc(C(=O)Nc4cc(-c5noc([C@H]6C[C@@H]6F)n5)ccc4C)n3c2)n1 [I-2] | – | **** (a solubility less than or equal to 2 μM)
16 | Cc1ccc(-c2noc([C@H]3C[C@@H]3F)n2)cc1NC(=O)c1cnc2cc(C(=O)N3CCCC3)ccn12 [I-3] | – | *** (a solubility greater than 2 μM and less than or equal to 10 μM)
17 | Cc1ccc(-c2noc([C@H]3C[C@@H]3F)n2)cc1NC(=O)c1cnc2ccc(N3CCCC3=O)cn12 [I-4] | – | **** (a solubility less than or equal to 2 μM)
18 | Cc1ccc(-c2noc([C@H]3C[C@@H]3F)n2)cc1NC(=O)c1cnc2ccc(CNS(=O)(=O)C3CC3)cn12 [I-5] | – | **** (a solubility less than or equal to 2 μM)
19 | Cc1ccc(-c2noc([C@H]3C[C@@H]3F)n2)cc1NC(=O)c1cnc2cc(CNC(=O)CO)ccn12 [I-7] | – | **** (a solubility less than or equal to 2 μM)
20 | Cc1ccc(-c2noc([C@H]3C[C@@H]3F)n2)cc1NC(=O)c1cnc2ccc(CNC(=O)CO)cn12 [I-8] | – | **** (a solubility less than or equal to 2 μM)

The next lines start with results.

Row | IC50 (wtKIT) | SMILES | Solubility (μM) (Kinetic solubility assay)
21 | 50 to 500 nM | Cc1ccc(-c2noc(N3CC(F)(F)C3)n2)nc1NC(=O)c1cnc2ccccn12 [Compound I-711] | –
22 | 50 to 500 nM | Cc1ccc(-c2ncon2)cc1NC(=O)c1cnc2cc(N3CCCCC3)ccn12 [Compound I-712] | –
23 | ≤ 50 nM | Cc1ccc(-c2ncon2)cc1NC(=O)c1cnc2cc(N(C)C)ccn12 [Compound I-718] | –
24 | ≤ 50 nM | Cc1ccc(-c2noc(-c3ccccc3)n2)cc1NC(=O)c1cnc2cc(COCCO)ccn12 [Compound I-719] | –
25 | ≤ 50 nM | CCc1nc(-c2ccc(C)c(NC(=O)c3cnc4cc(-c5cscn5)ccn34)c2)no1 [Compound I-720] | –
26 | ≤ 50 nM | Cc1ccc(-c2noc([C@H](C)O)n2)cc1NC(=O)c1cnc2cc(-c3cscn3)ccn12 [Compound I-721] | –
27 | ≤ 50 nM | CCc1nc(-c2ccc(C)c(NC(=O)c3cnn4cc(-c5ccn(C)n5)ccc34)c2)no1 [Compound I-722] | –
28 | ≤ 50 nM | Cc1ccc(-c2noc(-c3cccnc3)n2)cc1NC(=O)c1cnn2cc(-c3ccn(C)n3)ccc12 [Compound I-723] | –
29 | 50 to 500 nM | Cc1ccn2c(C(=O)Nc3cc(-c4noc(-c5cccnc5)n4)ccc3C)cnc2c1 [Compound I-726] | –
30 | ≤ 50 nM | Cc1ccc(-c2noc(C3CC(O)C3)n2)cc1NC(=O)c1cnc2cc(-c3ccn(C)n3)ccn12 (stereo not shown) [Compound I-727] | –
31 | ≤ 50 nM | Cc1ccc(-c2ncon2)cc1NC(=O)c1cnn2cc(-c3ccn(C)n3)ccc12 [Compound I-729] | –
32 | ≤ 50 nM | Cc1ccc(-c2noc(C(C)O)n2)cc1NC(=O)c1cnn2cc(-c3ccn(C)n3)ccc12 (stereo not shown) [Compound I-730] | –
33 | ≤ 50 nM | CCc1nc(-c2ccc(C)c(NC(=O)c3cnc4cc(COC)ccn34)c2)no1 [Compound I-734] | –
34 | 500 to 5000 nM | COCc1ccn2c(C(=O)Nc3cc(-c4noc(C(C)O)n4)ccc3C)cnc2c1 (stereo not shown) [Compound I-735] | –
35 | ≤ 50 nM | Cc1ccn2c(C(=O)Nc3cc(-c4noc(-c5ccccc5)n4)ccc3C)cnc2c1 [Compound I-736] | –
36 | ≤ 50 nM | CCc1nc(-c2ccc(C)c(NC(=O)c3cnc4cc(OC)ccn34)c2)no1 [Compound I-737] | –
37 | 50 to 500 nM | Cc1ccc(-c2noc(-c3cccnc3)n2)cc1NC(=O)c1cnc2ccccn12 [Compound I-738] | –
38 | 500 to 5000 nM | Cc1ccc(-c2noc(C(C)O)n2)cc1NC(=O)c1cnc2cc(F)ccn12 (stereo not shown) [Compound I-741] | –
39 | 50 to 500 nM | COc1ccn2c(C(=O)Nc3cc(-c4noc(C(C)O)n4)ccc3C)cnc2c1 (stereo not shown) [Compound I-742] | –
40 | 500 to 5000 nM | COc1ccn2c(C(=O)Nc3cc(-c4noc(-c5ccccc5)n4)ccc3C)cnc2c1 [Compound I-743] | –
41 | 500 to 5000 nM | Cc1ccc(-c2ncon2)cc1NC(=O)c1cnc2cc(F)ccn12 [Compound I-744] | –
42 | 500 to 5000 nM | Cc1ccc(-c2noc(C3CC(N)C3)n2)cc1NC(=O)c1cnc2cc(Cl)ccn12 (stereo not shown) [Compound I-746] | –
43 | 50 to 500 nM | Cc1ccc(-c2noc(C3CC(NC(=O)OC(C)(C)C)C3)n2)cc1NC(=O)c1cnc2cc(Cl)ccn12 (stereo not shown) [Compound I-747] | –
44 | ≤ 50 nM | Cc1ccn2c(C(=O)Nc3cc(-c4noc(CCC(C)(O)C(F)(F)F)n4)ccc3C)cnc2c1 (stereo not shown) [Compound I-752, 7-methyl-N-(2-methyl-5-(5-(4,4,4-trifluoro-3-hydroxy-3-methylbutyl)-1,2,4-oxadiazol-3-yl)phenyl)imidazo[1,2-a]pyridine-3-carboxamide] | –
45 | ≤ 50 nM | Cc1ccc(-c2noc(CC3COC3)n2)cc1NC(=O)c1cnc2cc(Cl)ccn12 [Compound I-753, 7-Chloro-N-[2-methyl-5-[5-(oxetan-3-ylmethyl)-1,2,4-oxadiazol-3-yl]phenyl]imidazo[1,2-a]pyridine-3-carboxamide] | –
46 | ≤ 50 nM | CCc1nc(-c2ccc(C)c(NC(=O)c3cnc4cc(COCCO)ccn34)c2)no1 [Compound I-754] | –
